Experimental data from patent US20240109942A1, “CHOLECYSTOKININ (CCK) SECRETION-PROMOTING PEPTIDE TARGETING CALCIUM-SENSING RECEPTOR, AND PREPARATION METHOD AND USE THEREOF” (University of Shanghai for Science and Technology, priority 2022, published 2024).
Where no end group is shown, it is not given here.

Tested on: STC-1 cell
Experiment: MTT cell proliferation and cytotoxicity assay on STC-1 cell
Format: cell-based
Settings: absorbance 570 nm, peptide 0, 1, 2, 4 mmol/L, FIG. 2
Experimental: An STC-1 cell was cultured in a dulbecco's modified eagle medium (DMEM) containing 10% fetal bovine serum (FBS), 1% non-essential amino acids (NEAA), 100 U/mL penicillin and 0.1 mg/mL streptomycin. The cell was incubated in a cell incubator containing 5% CO2 at 37° C. and was subcultured by means of trypsin digestion when reaching 80%-90% density.
The effect of the active peptide of QGDVVALPA on the viability of the STC-1 cell was tested and evaluated by means of 3-(4,5-dimethylthiazol-2-yl)-2,5-diphenyltetrazolium bromide [3-(4,5-di methyl-2-thiazolyl)-2,5-di phenyl]-2H-tetrazolium bromide, methyl thiazolyl tetrazolium (MTT)) cell proliferation and cytotoxicity. MTT was added into the STC-1 cell treated in a 96-well plate, and a metabolically active cell cleaved yellow tetrazolium salt MTT into a purple formazan crystal. Formazan formed was dissolved, absorbance was measured with a microplate reader at a measurement wavelength of 570 nm, and results were expressed as a percentage of a control group.

Sequence: QGDVVALPA [QGDVVALPA, Gln-Gly-Asp-Val-Val-Ala-Leu-Pro-Ala]
- viability of the STC-1 cell compared with the control group: not changed
